{"source": "patent US20260130395A1", "about": "“Water Dispersible Botanical Compositions” (Aquila Black Limited, priority 2021, published 2026)", "assay": "Stability of cannabinoid compounds and Vitamin E components in Beverage 1 (AB White) by LCMSMS", "type": "physicochemical", "method": "The stability of the plant-derived cannabinoid compounds and Vitamin E components of the beverage stored 8° C. and at room temperature (21-25° C.) were monitored, over a period of 570 days via Liquid Chromatography-tandem Mass Spectrometry [LCMSMS, Agilent 6590, C18, 3×50 mm, 2.7 m (Agilent InfinityLab Poroshell 120 EC-C18), Electrospray Ionization detector]. The LCMSMS was calibrated for 0-1000 ng/ml cannabinoids with the same resin material used in the preparation of the concentrates. At each time period, 100 ml of beverage was diluted with 10 ml of methanol and injected into the LCMSMS for analysis."}
{"compound": "Cc1c(C)c2c(c(C)c1OC(=O)CCC(=O)O)CC[C@@](C)(CCC[C@H](C)CCC[C@H](C)CCCC(C)C)O2", "note": "[α-Tocopheryl succinate]", "values": [{"measurement": "Stability of Vitamin Es in AB White", "setting": "stored at 8° C., 0 days", "result": 12.8, "unit": "µg/mL"}, {"measurement": "Stability of Vitamin Es in AB White", "setting": "stored at 8° C., 1 days", "result": 11.83, "unit": "µg/mL"}, {"measurement": "Stability of Vitamin Es in AB White", "setting": "stored at 8° C., 2 days", "result": 12.31, "unit": "µg/mL"}, {"measurement": "Stability of Vitamin Es in AB White", "setting": "stored at 8° C., 3 days", "result": 11.94, "unit": "µg/mL"}, {"measurement": "Stability of Vitamin Es in AB White", "setting": "stored at 8° C., 5 days", "result": 11.44, "unit": "µg/mL"}, {"measurement": "Stability of Vitamin Es in AB White", "setting": "stored at 8° C., 8 days", "result": 11.48, "unit": "µg/mL"}, {"measurement": "Stability of Vitamin Es in AB White", "setting": "stored at 8° C., 9 days", "result": 12.08, "unit": "µg/mL"}, {"measurement": "Stability of Vitamin Es in AB White", "setting": "stored at 8° C., 10 days", "result": 12.28, "unit": "µg/mL"}, {"measurement": "Stability of Vitamin Es in AB White", "setting": "stored at 8° C., 11 days", "result": 11.94, "unit": "µg/mL"}, {"measurement": "Stability of Vitamin Es in AB White", "setting": "stored at 8° C., 12 days", "result": 12.41, "unit": "µg/mL"}, {"measurement": "Stability of Vitamin Es in AB White", "setting": "stored at 8° C., 15 days", "result": 11.56, "unit": "µg/mL"}, {"measurement": "Stability of Vitamin Es in AB White", "setting": "stored at 8° C., 16 days", "result": 12.09, "unit": "µg/mL"}, {"measurement": "Stability of Vitamin Es in AB White", "setting": "stored at 8° C., 17 days", "result": 11.60, "unit": "µg/mL"}, {"measurement": "Stability of Vitamin Es in AB White", "setting": "stored at 8° C., 18 days", "result": 11.59, "unit": "µg/mL"}, {"measurement": "Stability of Vitamin Es in AB White", "setting": "stored at 8° C., 19 days", "result": 11.89, "unit": "µg/mL"}, {"measurement": "Stability of Vitamin Es in AB White", "setting": "stored at 8° C., 22 days", "result": 11.81, "unit": "µg/mL"}, {"measurement": "Stability of Vitamin Es in AB White", "setting": "stored at 8° C., 23 days", "result": 11.46, "unit": "µg/mL"}, {"measurement": "Stability of Vitamin Es in AB White", "setting": "stored at 8° C., 24 days", "result": 11.75, "unit": "µg/mL"}, {"measurement": "Stability of Vitamin Es in AB White", "setting": "stored at 8° C., 25 days", "result": 12.41, "unit": "µg/mL"}, {"measurement": "Stability of Vitamin Es in AB White", "setting": "stored at 8° C., 26 days", "result": 11.64, "unit": "µg/mL"}, {"measurement": "Stability of Vitamin Es in AB White", "setting": "stored at 8° C., 29 days", "result": 12.43, "unit": "µg/mL"}, {"measurement": "Stability of Vitamin Es in AB White", "setting": "stored at 8° C., 30 days", "result": 11.78, "unit": "µg/mL"}, {"measurement": "Stability of Vitamin Es in AB White", "setting": "stored at 8° C., 60 days", "result": 12.18, "unit": "µg/mL"}, {"measurement": "Stability of Vitamin Es in AB White", "setting": "stored at 8° C., 90 days", "result": 11.33, "unit": "µg/mL"}, {"measurement": "Stability of Vitamin Es in AB White", "setting": "stored at 8° C., 120 days", "result": 11.31, "unit": "µg/mL"}, {"measurement": "Stability of Vitamin Es in AB White", "setting": "stored at 8° C., 150 days", "result": 12.29, "unit": "µg/mL"}, {"measurement": "Stability of Vitamin Es in AB White", "setting": "stored at 8° C., 180 days", "result": 11.74, "unit": "µg/mL"}, {"measurement": "Stability of Vitamin Es in AB White", "setting": "stored at 8° C., 210 days", "result": 11.40, "unit": "µg/mL"}, {"measurement": "Stability of Vitamin Es in AB White", "setting": "stored at 8° C., 240 days", "result": 11.70, "unit": "µg/mL"}, {"measurement": "Stability of Vitamin Es in AB White", "setting": "stored at 8° C., 270 days", "result": 11.24, "unit": "µg/mL"}, {"measurement": "Stability of Vitamin Es in AB White", "setting": "stored at 8° C., 300 days", "result": 11.53, "unit": "µg/mL"}, {"measurement": "Stability of Vitamin Es in AB White", "setting": "stored at 8° C., 330 days", "result": 11.81, "unit": "µg/mL"}, {"measurement": "Stability of Vitamin Es in AB White", "setting": "stored at 8° C., 360 days", "result": 11.10, "unit": "µg/mL"}, {"measurement": "Stability of Vitamin Es in AB White", "setting": "stored at 8° C., 390 days", "result": 11.34, "unit": "µg/mL"}, {"measurement": "Stability of Vitamin Es in AB White", "setting": "stored at 8° C., 420 days", "result": 11.30, "unit": "µg/mL"}, {"measurement": "Stability of Vitamin Es in AB White", "setting": "stored at 8° C., 450 days", "result": 11.28, "unit": "µg/mL"}, {"measurement": "Stability of Vitamin Es in AB White", "setting": "stored at 8° C., 480 days", "result": 10.58, "unit": "µg/mL"}, {"measurement": "Stability of Vitamin Es in AB White", "setting": "stored at 8° C., 510 days", "result": 10.83, "unit": "µg/mL"}, {"measurement": "Stability of Vitamin Es in AB White", "setting": "stored at 8° C., 540 days", "result": 10.58, "unit": "µg/mL"}, {"measurement": "Stability of Vitamin Es in AB White", "setting": "stored at 8° C., 570 days", "result": 10.93, "unit": "µg/mL"}, {"measurement": "Stability of Vitamin Es in AB White", "setting": "stored at 21-25° C., 0 days", "result": 12.8, "unit": "µg/mL"}, {"measurement": "Stability of Vitamin Es in AB White", "setting": "stored at 21-25° C., 1 days", "result": 12.6, "unit": "µg/mL"}, {"measurement": "Stability of Vitamin Es in AB White", "setting": "stored at 21-25° C., 2 days", "result": 12.3, "unit": "µg/mL"}, {"measurement": "Stability of Vitamin Es in AB White", "setting": "stored at 21-25° C., 3 days", "result": 12.0, "unit": "µg/mL"}, {"measurement": "Stability of Vitamin Es in AB White", "setting": "stored at 21-25° C., 5 days", "result": 12.0, "unit": "µg/mL"}, {"measurement": "Stability of Vitamin Es in AB White", "setting": "stored at 21-25° C., 8 days", "result": 11.9, "unit": "µg/mL"}, {"measurement": "Stability of Vitamin Es in AB White", "setting": "stored at 21-25° C., 9 days", "result": 12.7, "unit": "µg/mL"}, {"measurement": "Stability of Vitamin Es in AB White", "setting": "stored at 21-25° C., 10 days", "result": 12.5, "unit": "µg/mL"}, {"measurement": "Stability of Vitamin Es in AB White", "setting": "stored at 21-25° C., 11 days", "result": 11.8, "unit": "µg/mL"}, {"measurement": "Stability of Vitamin Es in AB White", "setting": "stored at 21-25° C., 12 days", "result": 11.6, "unit": "µg/mL"}, {"measurement": "Stability of Vitamin Es in AB White", "setting": "stored at 21-25° C., 15 days", "result": 12.6, "unit": "µg/mL"}, {"measurement": "Stability of Vitamin Es in AB White", "setting": "stored at 21-25° C., 16 days", "result": 11.7, "unit": "µg/mL"}, {"measurement": "Stability of Vitamin Es in AB White", "setting": "stored at 21-25° C., 17 days", "result": 13.0, "unit": "µg/mL"}, {"measurement": "Stability of Vitamin Es in AB White", "setting": "stored at 21-25° C., 18 days", "result": 12.9, "unit": "µg/mL"}, {"measurement": "Stability of Vitamin Es in AB White", "setting": "stored at 21-25° C., 19 days", "result": 12.3, "unit": "µg/mL"}, {"measurement": "Stability of Vitamin Es in AB White", "setting": "stored at 21-25° C., 22 days", "result": 12.2, "unit": "µg/mL"}, {"measurement": "Stability of Vitamin Es in AB White", "setting": "stored at 21-25° C., 23 days", "result": 12.3, "unit": "µg/mL"}, {"measurement": "Stability of Vitamin Es in AB White", "setting": "stored at 21-25° C., 24 days", "result": 12.5, "unit": "µg/mL"}, {"measurement": "Stability of Vitamin Es in AB White", "setting": "stored at 21-25° C., 25 days", "result": 12.4, "unit": "µg/mL"}, {"measurement": "Stability of Vitamin Es in AB White", "setting": "stored at 21-25° C., 26 days", "result": 12.2, "unit": "µg/mL"}, {"measurement": "Stability of Vitamin Es in AB White", "setting": "stored at 21-25° C., 29 days", "result": 12.4, "unit": "µg/mL"}, {"measurement": "Stability of Vitamin Es in AB White", "setting": "stored at 21-25° C., 30 days", "result": 12.0, "unit": "µg/mL"}, {"measurement": "Stability of Vitamin Es in AB White", "setting": "stored at 21-25° C., 60 days", "result": 11.9, "unit": "µg/mL"}, {"measurement": "Stability of Vitamin Es in AB White", "setting": "stored at 21-25° C., 90 days", "result": 11.9, "unit": "µg/mL"}, {"measurement": "Stability of Vitamin Es in AB White", "setting": "stored at 21-25° C., 120 days", "result": 12.1, "unit": "µg/mL"}, {"measurement": "Stability of Vitamin Es in AB White", "setting": "stored at 21-25° C., 150 days", "result": 12.7, "unit": "µg/mL"}, {"measurement": "Stability of Vitamin Es in AB White", "setting": "stored at 21-25° C., 180 days", "result": 11.6, "unit": "µg/mL"}, {"measurement": "Stability of Vitamin Es in AB White", "setting": "stored at 21-25° C., 210 days", "result": 11.5, "unit": "µg/mL"}, {"measurement": "Stability of Vitamin Es in AB White", "setting": "stored at 21-25° C., 240 days", "result": 11.5, "unit": "µg/mL"}, {"measurement": "Stability of Vitamin Es in AB White", "setting": "stored at 21-25° C., 270 days", "result": 11.2, "unit": "µg/mL"}, {"measurement": "Stability of Vitamin Es in AB White", "setting": "stored at 21-25° C., 300 days", "result": 11.4, "unit": "µg/mL"}, {"measurement": "Stability of Vitamin Es in AB White", "setting": "stored at 21-25° C., 330 days", "result": 11.3, "unit": "µg/mL"}, {"measurement": "Stability of Vitamin Es in AB White", "setting": "stored at 21-25° C., 360 days", "result": 11.5, "unit": "µg/mL"}, {"measurement": "Stability of Vitamin Es in AB White", "setting": "stored at 21-25° C., 390 days", "result": 11.3, "unit": "µg/mL"}, {"measurement": "Stability of Vitamin Es in AB White", "setting": "stored at 21-25° C., 420 days", "result": 11.6, "unit": "µg/mL"}, {"measurement": "Stability of Vitamin Es in AB White", "setting": "stored at 21-25° C., 450 days", "result": 11.5, "unit": "µg/mL"}, {"measurement": "Stability of Vitamin Es in AB White", "setting": "stored at 21-25° C., 480 days", "result": 10.8, "unit": "µg/mL"}, {"measurement": "Stability of Vitamin Es in AB White", "setting": "stored at 21-25° C., 510 days", "result": 10.9, "unit": "µg/mL"}, {"measurement": "Stability of Vitamin Es in AB White", "setting": "stored at 21-25° C., 540 days", "result": 10.9, "unit": "µg/mL"}, {"measurement": "Stability of Vitamin Es in AB White", "setting": "stored at 21-25° C., 570 days", "result": 10.6, "unit": "µg/mL"}]}
